Measurements as given in patent US7858332B2, “Chemoprevention of endometrial cancer” (The Brigham and Women's Hospital, Inc., priority 2006, dated 2010).

System: PTEN-null endometrial glands (latent endometrial precancers)
Assay: Latent precancers (PTEN-null glands by immunohistochemistry) in paired endometrial biopsies before and after progestin therapy
Assay type: in vivo, women
Details: pre versus post therapy
Method: Women in Northern Norway (Tromso region) with successive endometrial biopsies taken under different hormonal conditions form the three main experimental groups of this study. Clinical aspects of these patients have been published elsewhere (Vereide, et al., Gynecol Oncol 91:526-33 (2003)), but will be summarized here. […] Just under half (10 of 22 reported in results) received low dose hormonal replacement therapy as follows: norestrin 1 mg/estradiol 2mg daily (6 patients), estriol 1-2mg daily (3 patients), tibolone 2.5 mg daily (1 patient), no therapy (12 patients). All patient materials were compiled from existing pathologic tissues generated as part of routine patient care (“discarded materials”), except for the P-IUD group, which was consented in advance. […]
Paraffin sections of endometrial biopsy and curetting specimens were rehydrated, and underwent antigen retrieval by microwave before overnight (4° C.) incubation with 1:300 murine monoclonal anti-PTEN antibody 6h2.1 (Cascade Biosciences, Winchester, Mass.) as previously described (Mutter, et al, Cancer Res 61:43114 (2001)). Slides were washed, and incubated with appropriate secondary biotinylated immunoglobulin (Vectastain ABC kit, Vector Laboratories, Inc., Burlingame, Calif.) and signal detected by sequential addition of avidin peroxidase and 3,3′-diaminobenzidine. […]

CC(=O)[C@@]1(O)CC[C@H]2[C@@H]3C[C@H](C)C4=CC(=O)CC[C@]4(C)[C@H]3CC[C@@]21C [p-cycle, medroxyprogesterone]
Change of latent precancers after therapy (in words): non-significant changes
